Measurements: patent publication US8349852B2, “Quinazolinone derivatives useful as vanilloid antagonists” (Novartis AG, priority 2009, dated 2013)

Biological target: human TRPV1 (Homo sapiens, UniProt Q8NER1)
Experiment: inhibition of low pH-, capsaicin-, anandamide- and NADA-stimulation of human TRPV1
Format: cell-based
Source text: The compounds of formulae (I) and (Ia) and I(B) in crystal form B, and their pharmaceutically acceptable salts and, where possible, pharmaceutically acceptable acid addition salts, have beneficial pharmacological activity and, therefore, are useful as pharmaceuticals.

Sequence of human TRPV1 (Q8NER1 whole entry): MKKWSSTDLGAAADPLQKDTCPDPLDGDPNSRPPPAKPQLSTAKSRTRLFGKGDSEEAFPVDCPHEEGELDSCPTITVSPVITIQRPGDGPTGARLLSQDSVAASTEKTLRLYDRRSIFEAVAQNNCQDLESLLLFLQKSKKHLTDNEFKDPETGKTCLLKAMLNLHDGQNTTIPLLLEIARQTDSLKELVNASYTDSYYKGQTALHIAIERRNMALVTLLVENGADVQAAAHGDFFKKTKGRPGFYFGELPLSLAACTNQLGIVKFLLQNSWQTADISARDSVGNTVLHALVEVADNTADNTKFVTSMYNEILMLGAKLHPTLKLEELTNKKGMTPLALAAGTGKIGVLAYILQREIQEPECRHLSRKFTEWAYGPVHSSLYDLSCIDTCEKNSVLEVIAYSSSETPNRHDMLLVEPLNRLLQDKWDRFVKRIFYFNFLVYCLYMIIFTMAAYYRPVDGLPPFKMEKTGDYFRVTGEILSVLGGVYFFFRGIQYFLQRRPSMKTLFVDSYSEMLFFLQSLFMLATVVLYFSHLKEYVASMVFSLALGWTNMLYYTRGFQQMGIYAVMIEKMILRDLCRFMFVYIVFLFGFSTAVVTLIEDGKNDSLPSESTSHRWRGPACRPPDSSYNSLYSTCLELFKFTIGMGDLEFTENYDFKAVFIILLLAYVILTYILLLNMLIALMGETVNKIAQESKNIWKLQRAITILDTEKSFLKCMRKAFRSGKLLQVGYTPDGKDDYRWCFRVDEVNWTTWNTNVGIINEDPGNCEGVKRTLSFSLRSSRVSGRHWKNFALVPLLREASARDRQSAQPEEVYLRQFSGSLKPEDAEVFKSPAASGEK

CC(C)c1nc2cc(O)ccc2c(=O)n1-c1ccc(C#N)cc1 [Example 1, 4-(7-hydroxy-2-isopropyl-4-oxo-4H-quinazolin-3-yl)-benzonitrile crystal form B]
nature of antagonist activity at human TRPV1: non-competitive and reversible
IC50 (IC50, inhibition of NADA-stimulation of human TRPV1, stimulus: NADA): 0.027 µM
IC50 (IC50, inhibition of anandamide-stimulation of human TRPV1, stimulus: anandamide): 0.01 µM
IC50 (IC50, inhibition of capsaicin-stimulation of human TRPV1, stimulus: capsaicin): 0.012 µM
IC50 (IC50, inhibition of low pH-stimulation of human TRPV1, stimulus: low pH): 0.005 µM
